According to patent publication US12662461B2, “Tricyclic compound and pharmaceutical use thereof” (JD BIOSCIENCE INC., priority 2019, dated 2026):
pIC50: −log10 of the molar value. Where a name gives a salt, the structure may show the parent alone.

Target: serotonin 2A (5-HT2A) receptor (Homo sapiens, UniProt P28223)
Experiment: Measurement of inhibitory activity against serotonin 2A receptor (in vitro)
Assay type: biochemical
Settings: inhibitory activity against serotonin 2A (5-HT2A) receptor
From the text: Experimental Example: Measurement of Inhibitory Activity Against Serotonin 2A Receptor

serotonin 2A (5-HT2A) receptor, sequence (P28223 whole entry, species assumed): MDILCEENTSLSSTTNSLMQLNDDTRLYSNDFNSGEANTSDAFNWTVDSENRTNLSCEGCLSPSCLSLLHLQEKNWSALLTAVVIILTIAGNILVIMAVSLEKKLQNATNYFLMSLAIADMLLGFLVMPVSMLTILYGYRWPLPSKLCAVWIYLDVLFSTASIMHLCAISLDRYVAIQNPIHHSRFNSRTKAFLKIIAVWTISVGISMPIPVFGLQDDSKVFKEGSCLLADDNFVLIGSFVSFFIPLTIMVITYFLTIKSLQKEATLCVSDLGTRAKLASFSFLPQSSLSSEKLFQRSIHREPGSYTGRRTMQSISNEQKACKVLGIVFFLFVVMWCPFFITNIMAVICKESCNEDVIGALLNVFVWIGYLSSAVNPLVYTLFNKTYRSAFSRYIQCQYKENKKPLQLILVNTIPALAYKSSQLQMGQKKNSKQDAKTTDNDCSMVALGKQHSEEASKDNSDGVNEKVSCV

Structure (SMILES)	pIC50
O=c1[nH]c2ccccc2c(=O)n1CCN1CCC(=C2c3ccc(Cl)cc3CCc3cccnc32)CC1 [Example 12, 3-(2-(4-(8-chloro-5,6-dihydro-11H-benzo[5,6]cyclohepta[1,2-b]pyridin-11-ylidene)piperidin-1-yl)ethyl)quinazoline-2,4(1H,3H)-dione]	7.33
CN1CCC(=C2c3ccc(Cl)cc3CCc3cccnc32)CC1 [Example 13, 8-chloro-11-(1-methylpiperidin-4-ylidene)-6,11-dihydro-5H-benzo[5,6]cyclohepta[1,2-b]pyridine]	6.92
N[C@@H](Cc1ccc(OCCCCN2CCC(=C3c4ccc(Cl)cc4CCc4cccnc43)CC2)cc1)C(=O)O [Example 14, (S)-2-amino-3-(4-(4-(4-(8-chloro-5,6-dihydro-11H-benzo[5,6]cyclohepta[1,2-b]pyridin-11-ylidene)piperidin-1-yl)butoxy)phenyl)propionic acid trihydrochloride]	6.73
Cc1nc2sccn2c1C(O)CN1CCC(=C2c3ccc(Cl)cc3CCc3cccnc32)CC1 (stereo not shown) [Example 15, 2-(4-(8-chloro-5,6-dihydro-11H-benzo[5,6]cyclohepta[1,2-b]pyridin-11-ylidene)piperidin-1-yl)-1-(6-methylimidazo[2,1-b]thiazol-5-yl)ethan-1-ol]	7.52
O=C1CCc2ccc(OCCCCN3CCC(=C4c5ccc(Cl)cc5CCc5cccnc54)CC3)cc2N1 [Example 18, 7-(4-(4-(8-chloro-5,6-dihydro-11H-benzo[5,6]cyclohepta[1,2-b]pyridin-11-ylidene)piperidin-1-yl)butoxy)-3,4-dihydroquinolin-2(1H)-one]	8.89
O=C1C2CCCCC2C(=O)N1CCCCN1CCC(=C2c3ccc(Cl)cc3CCc3cccnc32)CC1 (stereo not shown) [Example 19, 2-(4-(4-(8-chloro-5,6-dihydro-11H-benzo[5,6]cyclohepta[1,2-b]pyridin-11-ylidene)piperidin-1-yl)butyl)hexahydro-1H-isoindole-1,3(2H)-dione]	9.72
N[C@@H](Cc1ccc(OCCCCN2CCC(=C3c4ccc(Cl)cc4CCc4cccnc43)CC2)c(Cl)c1)C(=O)O [Example 20, (S)-2-amino-3-(3-chloro-4-(4-(4-(8-chloro-5,6-dihydro-11H-benzo[5,6]cyclohepta[1,2-b]pyridin-11-ylidene)piperidin-1-yl)butoxy)phenyl)propionic acid trihydrochloride]	8.68
N[C@@H](Cc1ccc(OCCCN2CCC(=C3c4ccc(Cl)cc4CCc4cccnc43)CC2)c(Cl)c1)C(=O)O [Example 21, (S)-2-amino-3-(3-chloro-4-(3-(4-(8-chloro-5,6-dihydro-11H-benzo[5,6]cyclohepta[1,2-b]pyridin-11-ylidene)piperidin-1-yl)propoxy)phenyl)propionic acid trihydrochloride]	8.68
N[C@@H](Cc1ccc(OCCCN2CCC(=C3c4ccc(Cl)cc4CCc4cccnc43)CC2)cc1)C(=O)O [Example 22, (S)-2-amino-3-(4-(3-(4-(8-chloro-5,6-dihydro-11H-benzo[5,6]cyclohepta[1,2-b]pyridin-11-ylidene)piperidin-1-yl)propoxy)phenyl)propionic acid trihydrochloride]	8.89
O=C(CN1CCC(=C2c3ccc(Cl)cc3CCc3cccnc32)CC1)c1ccc(Br)cc1 [Example 24, 1-(4-bromophenyl)-2-(4-(8-chloro-5,6-dihydro-11H-benzo[5,6]cyclohepta[1,2-b]pyridin-11-ylidene)piperidin-1-yl)ethan-1-one]	8.09
OC(CN1CCC(=C2c3ccc(Cl)cc3CCc3cccnc32)CC1)c1ccc(Br)cc1 (stereo not shown) [Example 27, 1-(4-bromophenyl)-2-(4-(8-chloro-5,6-dihydro-11H-benzo[5,6]cyclohepta [1,2-b]pyridin-11-ylidene)piperidin-1-yl)ethan-1-ol]	8.92
O=C1C2C(C(=O)N1CCCCN1CCC(=C3c4ccc(Cl)cc4CCc4cccnc43)CC1)[C@H]1CC[C@@H]2C1 (stereo partly drawn) [Example 30, (4R,7S)-2-(4-(4-(8-chloro-5,6-dihydro-11H-benzo[5,6]cyclohepta[1,2-b]pyridin-11-ylidene)piperidin-1-yl)butyl)hexahydro-1H-4,7-methanoisoindole-1,3(2H)-dione]	9.82
COc1cccc(CCc2ccccc2OCC(O)CN2CCC(=C3c4ccc(Cl)cc4CCc4cccnc43)CC2)c1 (stereo not shown) [Example 60, 1-(4-(8-chloro-5,6-dihydro-11H-benzo[5,6]cyclohepta[1,2-b]pyridin-11-ylidene)piperidin-1-yl)-3-(2-(3-methoxyphenethyl)phenoxy)propan-2-ol]	7.51
